# In PMC11129182, “Development of Inhibitors, Probes, and PROTAC Provides a Complete Toolbox to Study PARK7 in the Living Cell” (Journal of Medicinal Chemistry, 2024):
# Read-outs that look alike come from different tables or passages of the source.
# How the values were obtained:
# PARK7 [1] = molecular target: T1, PARK7 (Homo sapiens, UniProt Q99497); assay: Cell-based competition assay with probe JYQ-92 in HEK293T cells; conditions: 24 h; for cellular target engagement of PARK7: live HEK293T cells, 5 μM
# T1 sequence (Q99497 1-189): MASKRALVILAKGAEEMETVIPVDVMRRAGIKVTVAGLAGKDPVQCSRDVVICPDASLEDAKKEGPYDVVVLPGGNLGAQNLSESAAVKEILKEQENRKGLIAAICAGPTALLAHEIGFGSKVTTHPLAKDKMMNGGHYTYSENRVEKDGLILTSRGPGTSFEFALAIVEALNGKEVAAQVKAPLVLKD
# Protocol: Samples were resolved by SDS-PAGE and analyzed by fluorescence scanning and Western blotting (Figure 2B). The target engagement of cellular PARK7 is reflected by the disappearance of the PARK7 labeling band in the fluorescence gel scan and by the loss of the shifted probe-labeled PARK7 band in the Western blot.
# HEK293T cells were treated with the indicated concentrations of indicated inhibitors for indicated incubation time.
# Figure S1. Assessment of the cell permeability of JYQ -88. (A) Structure of JYQ-92.
# (B) Target engagement of JYQ-88 in HEK293T cells. HEK293T cells were incubated […]
# with PARK7 probe JYQ-92 fo r 1 h at 37 °C. The reactions were stopped by the addition of NuPAGE™ LDS sample buffer (4x). Samples were resolved by SDS -PAGE using […]
# fluorescence scanning on a Typhoon FLA 9500 (GE Healthcare Life Sciences) using […]
# The disappearance of the JYQ-92-labeled band in […]
# of JYQ-88 is used as a measurement of cellular PARK7 engagement with JYQ -88.
# (§1) (1 picture or pasted object on this page, not shown here)
# PARK7 [2] = molecular target: T1, PARK7; assay: Hit validation and pure-compound testing in the PARK7 FP assay with JYQ-107; assay type: biochemical; conditions: for inhibition at 0.25 µM: read-out: % Inhibition 0.25 µM; for potency in FP assay compared to JYQ-88: 0.25 and 1 μM; for inhibition at 0.5 µM: read-out: % Inhibition 0.5 µM
# PARK7 [3] = molecular target: T1, PARK7; assay: High-throughput screen of the crude compound library, PARK7 fluorescence polarization (FP) assay with FP reagent JYQ-107; assay type: biochemical; conditions: for inhibition at 1.25 µM: read-out: HTS FP assay %Inhibition (1.25 µM)
# DUBs = assay: Activity-based DUB profiling with Rho-Ub-PA probe in HEK293T cells; assay type: cell-based, human; conditions: 5 µM, 24 h
# Protocol: Figure S3. Activity evaluation of inhibitors against DUBs in HEK293T cells. (A ) Inhibitors from structure modification. (B) Inhibitors from HTS. HEK293T cells were […]
# incubation with Rho- Ub-PA probe for 30 min at 37 °C. Samples were resolved by SDS - […]
# and visualized by fluorescence scanning on a Typhoon FLA 9500 (GE Healthcare Life […]
# Nitrocellulose membranes and Western blot analysis.
# as §1
# PARK7 [4] = molecular target: T1, PARK7; assay: biochemical; set-up: Fluorescence polarization competition: residual PARK7 labelling by JYQ-107 probe after 1 h preincubation, % inhibition; conditions: sheet Validation pure compounds
# Protocol: The 15 pure compounds from the two different approaches (5 compounds from structure modification and 10 compounds from HTS) were assessed for their potency to inhibit PARK7 at 0.25 and 1 μM final concentrations using the FP assay (Figure 2A). […] Fifty four compounds showing inhibition above 90% were picked and checked at three different concentrations. Using a Labcyte Echo550 acoustic dispenser, 20, 10, and 5 nL of 1 mM compound stock solutions were transferred from the source plates into an empty 384-well plate to obtain 1, 0.5, 0.25 μM final concentrations. […] The relative loss of FP signal compared with reference controls (5 mM NEM, 100% inhibition, and DMSO, 0% inhibition) was used to calculate the remaining enzyme activity. The inhibition percentage of these 54 compounds was plotted as heatmaps using Graphpad Prism 9.0.1 software. […] Stock solutions of 0.26 μM PARK7 and 80 nM JYQ-107 were prepared. Using a Labcyte Echo550 acoustic dispenser, 10 nL of 1 mM DMSO stock solutions of the library compounds was transferred from the source plates into the empty 1536-well screening plates to obtain a 1.25 μM final compound concentration. Next, PARK7 (6 μL, final concentration 0.2 μM) was dispensed using a Biotek MultiflowFX [compound left out] dispenser and incubated for 2 h, followed by dispensing the probe JYQ-107 (2 μL, final concentration 20 nM). […] The percentage inhibition of each compound was calculated from the FP values, normalized to the positive (5 mM N-ethylmaleimide, 100% inhibition) and negative (DMSO, 0% inhibition) controls.
# [5] = 1.25 µM, crude compound library
Molecule,cellular target engagement of PARK7 (PARK7 [1]),inhibition at 0.25 µM (PARK7 [2]; pure compounds),inhibition at 1 µM (PARK7 [2]; pure compounds),potency in FP assay compared to JYQ-88 (PARK7 [2]; pure compounds),inhibition at 1.25 µM (PARK7 [3]; [5]),inhibition at 0.25 µM (PARK7 [2]; crude compounds),"inhibition at 0.5 µM (PARK7 [2]; crude compounds, 0.5 µM)",inhibition at 1 µM (PARK7 [2]; crude compounds),inhibition of DUBs in cells (DUBs),other results
"N#CN1CC[C@@H](C(=O)Nc2nc3c(s2)CN(C(=O)CN2CCOCC2)CC3)C1 [Compound 1, (R)-1-Cyano-N-(5-(2-morpholinoacetyl)-4,5,6,7-tetrahydrothiazolo[5,4-c]pyridin-2-yl)pyrrolidine-3-carboxamide]",did not bind with PARK7 in cells,62.8%,87.7%,did not improve,–,–,–,–,–,–
"CN1CCN(CC(=O)N2CCc3nc(NC(=O)[C@@H]4CCN(C#N)C4)sc3C2)CC1 [Compound 2, (R)-1-Cyano-N-(5-(2-(4-methylpiperazin-1-yl)acetyl)-4,5,6,7-tetrahydrothiazolo[5,4-c]pyridin-2-yl)pyrrolidine-3-carboxamide]",did not bind with PARK7 in cells,53.7%,83.7%,did not improve,–,–,–,–,–,–
"N#CN1CC[C@@H](C(=O)Nc2nc3c(s2)CN(C(=O)CN2CCNCC2)CC3)C1 [Compound 4, (R)-1-Cyano-N-(5-(2-(piperazin-1-yl)acetyl)-4,5,6,7-tetrahydrothiazolo[5,4-c]pyridin-2-yl)pyrrolidine-3-carboxamide]",did not bind with PARK7 in cells,40.2%,59.9%,lowered,–,–,–,–,–,–
"N#CN1CC[C@@H](C(=O)Nc2nc3c(s2)CN(C(=O)CC2CCNCC2)CC3)C1 [Compound 5, (R)-1-Cyano-N-(5-(2-(piperidin-4-yl)acetyl)-4,5,6,7-tetrahydrothiazolo[5,4-c]pyridin-2-yl)pyrrolidine-3-carboxamide]",did not bind with PARK7 in cells,38.5%,71%,lowered,–,–,–,–,–,–
"N#CN1CC[C@@H](C(=O)Nc2nc3c(s2)CN(C(=O)c2cnc(-c4cccs4)s2)CC3)C1 [Compound 108, (R)-1-Cyano-N-(5-(2-(thiophen-2-yl)thiazole-5-carbonyl)-4,5,6,7-tetrahydrothiazolo[5,4-c]pyridin-2-yl)pyrrolidine-3-carboxamide]",–,67.9%,93.1%,–,90.8%,64.2%,85.7%,98.5%,"showed inhibition of one or more DUBs, mainly UCHL1",–
"Cc1csc(-c2cccc(C(=O)N3CCc4nc(NC(=O)[C@@H]5CCN(C#N)C5)sc4C3)c2)n1 [Compound 334, (R)-1-Cyano-N-(5-(3-(4-methylthiazol-2-yl)benzoyl)-4,5,6,7-tetrahydrothiazolo[5,4-c]pyridine-2-yl)pyrrolidine-3-carboxamide]",–,84.2%,95.6%,–,89.4%,68.5%,86.9%,97.3%,"showed inhibition of one or more DUBs, mainly UCHL1",–
N#CN1CC[C@@H](C(=O)Nc2nc3c(s2)CN(C(=O)c2cccc(S(=O)(=O)NCCc4ccc(S(N)(=O)=O)cc4)c2)CC3)C1 [compound 199],–,–,–,–,–,–,–,–,–,inhibition at 0.25 µM (PARK7 [4]): 80.7%; inhibition at 1 µM (PARK7 [4]): 94.6%
"(R)-N-(5-(3-(1,2,4-Oxadiazol-3-yl)benzoyl)-4,5,6,7-tetrahydrothiazolo[5,4-c]pyridin-2-yl)-1-cyanopyrrolidine-3-carboxamide [Compound 199]",–,–,–,–,–,–,–,–,"showed inhibition of one or more DUBs, mainly UCHL1","HTS FP assay %Inhibition (1.25 µM) (PARK7 [3]; [5]): 95.3%; % Inhibition (PARK7 [3]; HTS of crude compound library, sheet ""SMILES+%Inh HTS""): 95.3%; % Inhibition 0.25 µM (PARK7 [2]; crude compounds): 81.4%; % Inhibition 0.5 µM (PARK7 [2]; crude compounds, 0.5 µM): 91.6%; % Inhibition 1 µM (PARK7 [2]; crude compounds): 98.6%; % Inhibition 0.25 µM (PARK7 [2]; pure compounds): 80.7%; % Inhibition 1 µM (PARK7 [2]; pure compounds): 94.6%"

# Now from value to molecule, other results behind:
cellular target engagement of PARK7 (PARK7 [1]),inhibition at 0.25 µM (PARK7 [2]; pure compounds),inhibition at 1 µM (PARK7 [2]; pure compounds),potency in FP assay compared to JYQ-88 (PARK7 [2]; pure compounds),inhibition at 1.25 µM (PARK7 [3]; [5]),inhibition at 0.25 µM (PARK7 [2]; crude compounds),"inhibition at 0.5 µM (PARK7 [2]; crude compounds, 0.5 µM)",inhibition at 1 µM (PARK7 [2]; crude compounds),Molecule,inhibition of DUBs in cells (DUBs),other results
–,~100%,98.5%,–,91.8%,76.8%,91.5%,98.3%,"CC(=O)N1CCN(S(=O)(=O)c2cccc(C(=O)N3CCc4nc(NC(=O)[C@@H]5CCN(C#N)C5)sc4C3)c2)CC1 [Compound 336, (R)-N-(5-(3-((4-Acetylpiperazin-1-yl)sulfonyl)benzoyl)-4,5,6,7-tetrahydrothiazolo[5,4-c]pyridin-2-yl)-1-cyanopyrrolidine-3-carboxamide]",did not show interference with the activity of any DUB,"concentration from which PARK7 is engaged (PARK7 [1]; HEK293T cells, 0.1–5 μM dilution series): 1 µM; % Inhibition 0.25 µM (PARK7 [2]; pure compounds): 87.6%"
–,68.3%,92.6%,–,–,58%,79.8%,95.6%,"Cc1cc(C(=O)N2CCc3nc(NC(=O)[C@@H]4CCN(C#N)C4)sc3C2)ccc1Br [Compound 415, (R)-N-(5-(4-Bromo-3-methylbenzoyl)-4,5,6,7-tetrahydrothiazolo[5,4-c]pyridin-2-yl)-1-cyanopyrrolidine-3-carboxamide]","showed inhibition of one or more DUBs, mainly UCHL1","inhibition at 1.25 µM (PARK7 [3]; 1.25 µM, crude compound library, FP reagent JYQ-107): 93.1%"
